Activity calls are given as the source filed them. The rule behind the calls is not given here.

Data set [1] concerns Candida albicans. In words: Antimicrobial activity against Candida albicans ATCC 90028 assessed as inhibition of fungal growth at 8 ug/ml incubated for 24 hrs by resazurin dye based assay. Type of data set: functional. The arrangement: scale not given: the % may be the effect or the level left. The following applies: dose 8 µg/ml. In general terms: The colour change of resazurin is a common sign of viable cells or microbes.

Data set [2] deals with Cryptococcus neoformans. Description: Antimicrobial activity against Cryptococcus neoformans var. grubii ATCC 208821 assessed as inhibition of fungal growth at 4 ug/ml incubated for 24 hrs by resazurin dye based assay. Type of data set: functional. The arrangement: scale not given: the % may be the effect or the level left. The note with it: dose 4 µg/ml.
The subject of another data set is HEK293. Description: Cytotoxicity against human HEK293 cells at 32 ug/ml. Type of data set: cell-based.
In data set [3] the test system is Haemonchus contortus. In words: Anti-helmintic activity against third-stage xL3 Haemonchus contortus larvae assessed as inhibition of larvae motility at 100 uM measured after 72 hrs. Type of data set: functional, organism-based.
The test system of data set [4] is Haemonchus contortus. In words: Anti-helmintic activity against fourth stage L4 Haemonchus contortus larvae assessed as inhibition of larvae motility at 100 uM after 72 hrs. Type of data set: functional. The arrangement: scale not given: the % may be the effect or the level left.
The test system of data set [5] is Haemonchus contortus. Description: Anti-helmintic activity against fourth stage L4 Haemonchus contortus larvae assessed as induction of abnormal morphological phenotype at >= 50 uM after 7 days. Type of data set: functional, organism-based. The note with it: dose microM >=50, time 7.0 day.
Data set [6] deals with Candida albicans. Description: Antimicrobial activity against Candida albicans ATCC 90028 assessed as inhibition of fungal growth at 32 ug/ml incubated for 24 hrs by resazurin dye based assay. The note with it: dose 32.0 µg/ml. Type of data set: functional, organism-based.
Data set [7] deals with Staphylococcus aureus. Description: Antimicrobial activity against methicillin-resistant Staphylococcus aureus ATCC 43300 assessed as inhibition of bacterial growth at < 0.2 ug/ml incubated for 18 hrs by resazurin dye based assay. The following applies: dose microg/ml <0.2. Type of data set: functional. The arrangement: scale not given: the % may be the effect or the level left.

Data set [8] deals with Cryptococcus neoformans. In words: Antimicrobial activity against Cryptococcus neoformans var. grubii ATCC 208821 assessed as inhibition of fungal growth at 8 ug/ml incubated for 24 hrs by resazurin dye based assay. Type of data set: functional. More on the design: scale not given: the % may be the effect or the level left. The following applies: dose 8 µg/ml.
In data set [9] the test system is Staphylococcus aureus. Description: Antimicrobial activity against methicillin-resistant Staphylococcus aureus ATCC 43300 assessed as inhibition of bacterial growth at 32 ug/ml incubated for 18 hrs by resazurin dye based assay. Type of data set: functional, organism-based. The note with it: dose 32.0 µg/ml.
Another data set relates to Escherichia coli. In words: Antimicrobial activity against Escherichia coli ATCC 25922 assessed as inhibition of bacterial growth at 32 ug/ml incubated for 18 hrs by resazurin dye based assay. Type of data set: functional, organism-based. The following applies: dose 32.0 µg/ml.
The next data set relates to Klebsiella pneumoniae. Description: Antimicrobial activity against Klebsiella pneumoniae ATCC 700603 assessed as inhibition of bacterial growth at 32 ug/ml incubated for 18 hrs by resazurin dye based assay. Type of data set: functional, organism-based. The following applies: dose 32.0 µg/ml.
A further data set deals with Acinetobacter baumannii. Description: Antimicrobial activity against Acinetobacter baumannii ATCC 19606 assessed as inhibition of bacterial growth at 32 ug/ml incubated for 18 hrs by resazurin dye based assay. Type of data set: functional, organism-based. The following applies: ATCC 19606 = CIP 70.34 = JCM 6841, dose 32.0 µg/ml.
The next data set has as its system Pseudomonas aeruginosa. In words: Antimicrobial activity against Pseudomonas aeruginosa ATCC 27853 assessed as inhibition of bacterial growth at 32 ug/ml incubated for 18 hrs by resazurin dye based assay. Type of data set: functional, organism-based. The following applies: dose 32.0 µg/ml.
Data set [10] relates to Cryptococcus neoformans. Description: Antimicrobial activity against Cryptococcus neoformans var. grubii ATCC 208821 assessed as inhibition of fungal growth at 32 ug/ml incubated for 24 hrs by resazurin dye based assay. Type of data set: functional. The following applies: dose 32.0 µg/ml.
Data set [11] can be described thus: Hemolytic activity against RBC (unknown origin) at 32 ug/ml. Type of data set: ADME, cell-based, Erythrocyte. The following applies: red blood cells (erythrocytes), at 32 µg/mL, read-out: Activity.

For `CC1=C(O)C(=O)c2c(O)ccc(O)c2C1=O`, the Activity in the data set with Candida albicans [1] was 98%; with Cryptococcus neoformans [2] it was 100%; in the data set with HEK293 (dose 32 µg/ml), “Non-Toxic”; in the data set with Haemonchus contortus [4] it was 27%. Besides, the result in the data set with Haemonchus contortus [3] was inactive. Besides, in the data set on Haemonchus contortus [5], the outcome was Active.
For the compound `COc1ccc(-c2oc3cc(OC4OC(C)C(O)C(O)C4O)cc(O)c3c(=O)c2OC2OC(C)C(O)C(O)C2O)cc1O` (configuration not stated), the result with Haemonchus contortus [3] was inactive.
Same read-out and setting: in the case of `COc1ccc(-c2oc3cc(OC4OC(C)C(O)C(OC(C)=O)C4O)cc(O)c3c(=O)c2OC2OC(C)C(O)C(O)C2O)cc1O` (configuration not stated) it was “inactive”.
For `CC1=C(O)C(=O)c2c(OC3OC(CO)C(O)C(O)C3O)ccc(O)c2C1=O` (configuration not stated), the outcome in the data set with Candida albicans [6] was Active.
Consider `CC1=CC(=O)c2c(O)cccc2C1=O` [PLUMBAGIN], for which the Activity in the data set on HEK293 (at 32 µg/mL) is given as 92%; in the data set on Staphylococcus aureus [7] it was 96%; in the data set on Cryptococcus neoformans [8], 100%.
For `O=C1CC(c2ccc(O)cc2)Oc2cc(O)c([C@@H]3O[C@H](CO)[C@@H](O)[C@H](O)[C@H]3O)c(O)c21` (some centres not stated), the result in the data set with Staphylococcus aureus [9], with Escherichia coli, in the data set on Klebsiella pneumoniae, in the data set on Acinetobacter baumannii, with Pseudomonas aeruginosa and with Candida albicans [6] was Active. Also, the result in the data set with Cryptococcus neoformans [10] was Active.
For `O=c1c(O[C@@H]2O[C@H](CO)[C@@H](O)[C@H](O)[C@H]2O)c(-c2ccc(O)c(O)c2)oc2cc(O)cc(O)c12` [ISOQUERCETIN], the outcome with Staphylococcus aureus [9], with Escherichia coli, in the data set with Klebsiella pneumoniae, in the data set on Acinetobacter baumannii, in the data set on Pseudomonas aeruginosa and in the data set on Cryptococcus neoformans [10] was Active. Also, in the data set on Candida albicans [6], the result was inactive. The hemolysis at 32 ug/ml in data set [11] was more than 10%.
